Reference: patent US11090292B2, “Compositions and methods of use of an inappetance-controlling compound” (Aratana Therapeutics, Inc., priority 2012, dated 2021)

Key:
[1] = tested on: insulin-like growth factor 1 (IGF-1); experiment: Example 1: serum IGF-1 concentration; type: in vivo, Beagle dogs
Method: A controlled, seven-day study was performed to assess the impact of different capromorelin-dosing regimens on the production of insulin-like growth factor 1 (hereinafter “IGF-1”), growth hormone (hereinafter “GH”), and cortisol. The different capromorelin-dosing regimens were also assessed for the impact on food intake and changes in body mass.
Eighteen adult non-naïve Beagle dogs (nine males and nine females) were divided into one of three treatment groups. Each of the three treatment groups included three males and three females. Group A, which was the control group, was dosed twice per day, via oral gavage, with a vehicle (deionized water alone) and was used as a baseline data point for comparison against the active treatment regimens. Group B comprised an active treatment group that received two treatments per day, via oral gavage, with a capromorelin-containing composition with a concentration of 3 mg/kg capromorelin per treatment. Finally, Group C comprised an active treatment group that received one treatment per day, via oral gavage, with a capromorelin-containing composition with a concentration of 6 mg/kg capromorelin per treatment.
During the ten day study period, on an at least once-daily basis, each of the dogs was monitored for clinical observations, mortality, morbidity, body mass, and food consumption. […]

[2] = Example 4 seven-day study once vs twice daily 3 mg/kg: food consumption and body weight; type: in vivo, Beagle dogs
Method: A controlled, seven-day study was performed to assess the impact of different capromorelin-dosing regimens on the production of IGF-1, GH, and cortisol. The different capromorelin-dosing regimens were also assessed for the impact on food intake and changes in body mass.
[…] were divided into one of three treatment groups, with one negative control group and two active treatment groups. Each of the three treatment groups included three males and three females. The first group received a placebo formulation (i.e., deionized water) twice per day, via oral gavage. The second group received a once-daily dose of the capromorelin composition at a concentration of 3 mg/kg, via oral gavage. The third group received a twice-daily dose of the capromorelin composition at a concentration of 3 mg/kg, via oral gavage.
During the ten day study period, on an at least once-daily basis, each of the dogs was monitored for clinical observations, mortality, moribundity, body mass, acceptability/palatability, and food consumption. Serum samples were taken to measure capromorelin concentration, GH concentration, IGF-1 concentration, and cortisol concentration. Serum samples were taken on days 1, 2, 4, and 7 at −15 minutes (pre-dose), immediately prior to dosing (0 minutes) and 30, 45, 60, 90, 120, 240, 360, and/or 480 minutes post dosing. […]

IGF-1 [3] = experiment: Example 13: serum IGF-1; type: in vivo, cats with compromised kidney function; conditions: 8 hours post administration; Group 1 IV Day 0, Group 2 SC Days 0 and 13
Method: The following study was undertaken to assess multiple points. First, the following experiments were conducted to determine if a formulation of capromorelin, when administered either intravenously or subcutaneously, can stimulate appetite in cats with compromised kidney function. Second, the following experiments were conducted to assess the pharmacokinetic profile of capromorelin in the serum of cats with compromised kidney function. Finally, the following experiments were conducted to determine if capromorelin accumulates in the serum after 14 days of treatment that is subcutaneously administered.
Sixteen cats with compromised kidney function were acclimatized for the following study. Animals assigned to Group 1 (n=6) received an intravenous administration of a capromorelin formulation (i.e., capromorelin in sterile water) at a dose of 0.75 mg/kg on Day 0 of the experiment. Animals assigned to Group 2 (n=6) received a subcutaneous administration of a capromorelin formulation (2.1% w/v capromorelin, 1% w/v benzyl alcohol, and citrate buffer) daily for 14 days at a dose of 2 mg/kg. Animals assigned to Group 3 (n=4) served as untreated controls. […] Diet consumption was also monitored on study days −7 until day 13 for the animals in Groups 2 and 3 only.

IGF-1 [4] = experiment: Example 12: serum IGF-1; type: in vivo, cats; conditions: Day 0
Method: Similar to some of the other pharmacokinetic analyses conducted in dogs and cats, an additional pharmacokinetic study was conducted in cats to assess capromorelin formulations that allow sufficient drug to circulate to produce appetite stimulation and to define the capromorelin pharmacokinetic profile in cats. Briefly, twelve cats were randomized into Group 1 (six cats) and Group 2 (six cats). Group 1 received an intravenous formulation that included 0.75 mg/kg of capromorelin dissolved in sterile water and Group 2 received a previously tested formulation via oral gavage. Food consumption was determined daily for all cats. Specifically, animals were offered feed at approximately 11:00 AM, with the removal of feed at approximately 3:00 PM. Upon removal of feed, the amount consumed was calculated. […] Initially, the cats were given a seven day acclimation period to adjust to the experimental conditions and feed provided. After the acclimation period, on Day 0, all animals in Group 1 received an intravenous injection of the composition containing a dose of 0.75 mg/kg of capromorelin. On Day 0, the animals in Group 2 received an oral administration of the formulation via gavage at a dose of 3 mg/kg of capromorelin. […]

[5] = Example 1: clinical observations / toxicological responses; type: in vivo; conditions: 3 mg/kg twice daily or 6 mg/kg once daily, 7 days
Method: During the ten day study period, on an at least once-daily basis, each of the dogs was monitored for clinical observations, mortality, morbidity, body mass, and food consumption. Serum samples were taken to measure capromorelin concentration, GH concentration, IGF-1 concentration, and cortisol concentration. Serum samples were taken on days 1, 2, 4, and 7 at −15 minutes (pre-dose), immediately prior to dosing (0 minutes) and 30, 45, 60, 90, 120, 240, 360, and/or 480 minutes post dosing. Additional blood samples were taken at 8 AM on Day 10 of the study to assess long-term impact of the active treatments.

CN1N=C2CCN(C(=O)[C@@H](COCc3ccccc3)NC(=O)C(C)(C)N)C[C@@]2(Cc2ccccc2)C1=O.O=C(O)C(O)C(O)C(=O)O [capromorelin]
serum IGF-1 levels versus deionized water three days after terminating treatment ([1]; Day 10): not significantly different
serum IGF-1 levels relative to deionized water ([1]; days 2, 4 and 7 of treatment, both doses): remained consistently higher
weight loss over the course of the experiment ([2]; once-daily 3 mg/kg oral gavage): did not experience weight loss or did not experience as great a weight loss as the negative control
average more food consumed daily relative to the negative control ([2]; once-daily and twice-daily 3 mg/kg oral gavage, 7 days): approximately 34%
serum concentration of IGF-1 as a result of treatment (IGF-1 [3]): increased in serum concentration of IGF-1
IGF-1 levels in the serum, Group 1 (IV 0.75 mg/kg) compared to Group 2 (oral 3 mg/kg) (IGF-1 [4]): greater increased in IGF-1 levels
toxicological responses [5]: no toxicological responses were noted
